Patent US8415469B2, “Compounds and methods for kinase modulation, and indications therefor” (Plexxikon Inc., priority 2005, dated 2013)

Experiments:
Type in all cases: biochemical
[1] = target: T1, B-Raf V600E (Homo sapiens, UniProt P15056, V600E); test: AlphaScreen kinase assay, B-Raf V600E; conditions: read-out: IC50, activity toward kinase B-Raf V600E
T1 construct: P4254. pFastBacBD-CDC37 BRAF D437-K722-X, V600E; His6 with pFastBac HT leader (TEV site) (N); made in house; host or cells: Sf9 (baculovirus; chaperone CDC37 co-expressed)
T1 sequence (P15056 with tags, fused parts or gaps V600E): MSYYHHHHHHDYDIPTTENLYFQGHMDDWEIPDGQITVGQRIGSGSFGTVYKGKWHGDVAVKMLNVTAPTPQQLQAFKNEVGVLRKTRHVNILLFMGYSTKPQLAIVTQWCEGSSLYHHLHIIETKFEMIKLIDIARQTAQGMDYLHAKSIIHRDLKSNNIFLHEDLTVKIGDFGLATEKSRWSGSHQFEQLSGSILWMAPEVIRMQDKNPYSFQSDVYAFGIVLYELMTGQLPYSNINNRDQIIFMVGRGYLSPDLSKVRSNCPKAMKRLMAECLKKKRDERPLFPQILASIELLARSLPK

[2] = target: T2, Ret (Homo sapiens, UniProt P07949); test: AlphaScreen kinase assay, Ret; conditions: read-out: IC50, activity toward kinase Ret
T2 construct: P1378.pET-SF BI-PTP RET H661-R1012 HIS; made in house
T2 sequence (P07949 with tags, fused parts or gaps): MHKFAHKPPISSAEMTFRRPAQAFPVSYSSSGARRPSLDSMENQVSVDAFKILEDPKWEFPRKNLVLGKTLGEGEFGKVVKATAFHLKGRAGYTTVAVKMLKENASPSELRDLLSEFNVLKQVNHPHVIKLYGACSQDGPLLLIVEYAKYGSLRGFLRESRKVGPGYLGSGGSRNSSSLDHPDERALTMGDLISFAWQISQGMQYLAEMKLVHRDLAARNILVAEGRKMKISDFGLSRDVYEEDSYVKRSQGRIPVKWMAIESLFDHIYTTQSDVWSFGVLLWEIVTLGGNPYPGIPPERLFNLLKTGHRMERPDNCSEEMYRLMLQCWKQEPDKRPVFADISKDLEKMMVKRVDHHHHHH

[3] = target: T3, Flt4 (Homo sapiens, UniProt P35916); test: AlphaScreen kinase assay, Flt4; conditions: read-out: IC50, activity toward kinase Flt4
T3 construct: purchased ProQinase GmbH (Freiburg, Germany)
In short: (§1)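 Biotinylated peptide substrate is phosphorylated by kinase; anti-phosphopeptide antibody on acceptor beads and streptavidin donor beads bring emission when substrate is phosphorylated. Inhibition lowers acceptor signal. Compounds from 20 mM DMSO stock tested as 8-point 1:3 serial dilutions.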

[4] = target: T4, Zap70 (Homo sapiens, UniProt P43403); test: AlphaScreen kinase assay, Zap70; conditions: read-out: IC50, activity toward kinase Zap70
T4 construct: P1868.pFastBac1 ZAP70 D327-G606 HIS, WT; His7 (HHHHHHH) (C); made in house
T4 sequence (P43403 with tags, fused parts or gaps): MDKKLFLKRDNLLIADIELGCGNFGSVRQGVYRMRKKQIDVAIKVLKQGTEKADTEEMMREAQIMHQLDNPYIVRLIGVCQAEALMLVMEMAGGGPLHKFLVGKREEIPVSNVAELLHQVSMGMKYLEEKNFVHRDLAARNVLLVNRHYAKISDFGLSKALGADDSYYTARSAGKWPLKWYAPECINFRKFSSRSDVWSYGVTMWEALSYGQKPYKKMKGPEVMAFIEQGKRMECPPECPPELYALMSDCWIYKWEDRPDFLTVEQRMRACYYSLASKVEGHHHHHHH
In short: as §1

[5] = target: T5, Kdr (Homo sapiens, UniProt P35968); test: Z'-Lyte FRET kinase assay (Invitrogen), Kdr; conditions: read-out: IC50, activity toward kinase Kdr
T5 construct: purchased Invitrogen (assay run by Invitrogen)
T5 sequence (P35968 20-1356): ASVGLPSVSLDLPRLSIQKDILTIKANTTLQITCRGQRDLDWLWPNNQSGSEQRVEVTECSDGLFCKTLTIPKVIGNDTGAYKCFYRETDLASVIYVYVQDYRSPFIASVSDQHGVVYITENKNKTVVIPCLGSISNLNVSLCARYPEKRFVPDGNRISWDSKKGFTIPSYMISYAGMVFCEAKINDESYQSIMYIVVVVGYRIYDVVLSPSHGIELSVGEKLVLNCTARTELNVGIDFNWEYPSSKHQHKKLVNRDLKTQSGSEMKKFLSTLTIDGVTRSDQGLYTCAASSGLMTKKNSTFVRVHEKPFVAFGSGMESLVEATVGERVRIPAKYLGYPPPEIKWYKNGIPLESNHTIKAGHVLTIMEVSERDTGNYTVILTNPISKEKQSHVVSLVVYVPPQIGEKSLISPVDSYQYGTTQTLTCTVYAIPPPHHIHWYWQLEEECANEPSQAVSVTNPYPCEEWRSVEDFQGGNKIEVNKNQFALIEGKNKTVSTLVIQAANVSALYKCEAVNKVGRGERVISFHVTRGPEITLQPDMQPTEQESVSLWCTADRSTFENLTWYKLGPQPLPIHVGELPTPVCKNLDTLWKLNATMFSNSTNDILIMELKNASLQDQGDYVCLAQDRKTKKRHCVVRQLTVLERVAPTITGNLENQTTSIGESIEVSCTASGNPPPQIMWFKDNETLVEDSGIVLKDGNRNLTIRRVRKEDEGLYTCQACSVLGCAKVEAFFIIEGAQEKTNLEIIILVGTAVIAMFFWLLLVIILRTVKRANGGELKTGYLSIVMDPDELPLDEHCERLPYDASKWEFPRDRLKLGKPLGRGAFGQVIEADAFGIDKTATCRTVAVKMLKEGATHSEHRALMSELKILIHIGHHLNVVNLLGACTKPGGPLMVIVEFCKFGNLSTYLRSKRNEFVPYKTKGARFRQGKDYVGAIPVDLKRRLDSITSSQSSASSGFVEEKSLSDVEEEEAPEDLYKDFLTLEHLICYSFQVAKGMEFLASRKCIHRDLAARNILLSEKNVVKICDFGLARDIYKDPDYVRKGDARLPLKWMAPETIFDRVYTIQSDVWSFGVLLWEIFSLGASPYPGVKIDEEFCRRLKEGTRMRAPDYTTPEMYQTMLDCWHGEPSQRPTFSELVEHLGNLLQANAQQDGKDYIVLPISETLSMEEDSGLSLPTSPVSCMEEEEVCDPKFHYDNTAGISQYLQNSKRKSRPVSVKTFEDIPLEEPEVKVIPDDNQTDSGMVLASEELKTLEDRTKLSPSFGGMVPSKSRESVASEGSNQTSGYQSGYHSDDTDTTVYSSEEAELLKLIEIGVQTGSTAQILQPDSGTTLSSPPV

[6] = target: T6, Abl (Homo sapiens, UniProt P00519); test: AlphaScreen kinase assay, Abl; conditions: read-out: activity toward kinase Abl, IC50
T6 construct: P1121. pET-SPEC BI-PTP Abl G227-V515-X; His6 (N); made in house; host or cells: E. coli (PTP1B co-expressed)
T6 sequence (P00519 with tags, fused parts or gaps): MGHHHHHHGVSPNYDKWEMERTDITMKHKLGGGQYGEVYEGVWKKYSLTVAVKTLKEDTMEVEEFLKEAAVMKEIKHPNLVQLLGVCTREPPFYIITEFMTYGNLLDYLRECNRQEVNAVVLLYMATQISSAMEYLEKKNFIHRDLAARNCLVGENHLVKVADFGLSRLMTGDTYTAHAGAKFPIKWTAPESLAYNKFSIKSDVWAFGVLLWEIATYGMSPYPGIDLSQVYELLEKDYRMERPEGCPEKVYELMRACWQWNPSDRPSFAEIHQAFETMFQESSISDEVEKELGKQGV
In short: as §1

[7] = target: T7, Kit (Homo sapiens, UniProt P10721); test: AlphaScreen kinase assay, Kit; conditions: read-out: IC50, activity toward kinase Kit
T7 construct: P1332.N6 BI PTP KIT M552-K948-X COD; His6 (N); made in house; host or cells: E. coli (PTP1B co-expressed)
T7 sequence (P10721 with tags, fused parts or gaps): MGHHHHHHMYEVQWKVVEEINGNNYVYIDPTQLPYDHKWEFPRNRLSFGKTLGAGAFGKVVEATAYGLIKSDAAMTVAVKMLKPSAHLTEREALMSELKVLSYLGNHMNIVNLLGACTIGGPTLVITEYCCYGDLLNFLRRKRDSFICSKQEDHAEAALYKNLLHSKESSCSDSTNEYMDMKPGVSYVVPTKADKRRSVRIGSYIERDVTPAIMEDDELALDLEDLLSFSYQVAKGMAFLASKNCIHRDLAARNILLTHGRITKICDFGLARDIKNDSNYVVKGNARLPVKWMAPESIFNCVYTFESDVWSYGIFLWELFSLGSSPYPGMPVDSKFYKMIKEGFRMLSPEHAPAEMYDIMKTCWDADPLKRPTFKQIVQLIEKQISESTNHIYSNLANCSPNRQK

[8] = target: T8, B-Raf (Homo sapiens, UniProt P15056); test: AlphaScreen kinase assay, B-Raf; conditions: read-out: IC50, activity toward kinase B-Raf
T8 construct: purchased Upstate Biotechnology
T8 sequence (P15056 whole entry): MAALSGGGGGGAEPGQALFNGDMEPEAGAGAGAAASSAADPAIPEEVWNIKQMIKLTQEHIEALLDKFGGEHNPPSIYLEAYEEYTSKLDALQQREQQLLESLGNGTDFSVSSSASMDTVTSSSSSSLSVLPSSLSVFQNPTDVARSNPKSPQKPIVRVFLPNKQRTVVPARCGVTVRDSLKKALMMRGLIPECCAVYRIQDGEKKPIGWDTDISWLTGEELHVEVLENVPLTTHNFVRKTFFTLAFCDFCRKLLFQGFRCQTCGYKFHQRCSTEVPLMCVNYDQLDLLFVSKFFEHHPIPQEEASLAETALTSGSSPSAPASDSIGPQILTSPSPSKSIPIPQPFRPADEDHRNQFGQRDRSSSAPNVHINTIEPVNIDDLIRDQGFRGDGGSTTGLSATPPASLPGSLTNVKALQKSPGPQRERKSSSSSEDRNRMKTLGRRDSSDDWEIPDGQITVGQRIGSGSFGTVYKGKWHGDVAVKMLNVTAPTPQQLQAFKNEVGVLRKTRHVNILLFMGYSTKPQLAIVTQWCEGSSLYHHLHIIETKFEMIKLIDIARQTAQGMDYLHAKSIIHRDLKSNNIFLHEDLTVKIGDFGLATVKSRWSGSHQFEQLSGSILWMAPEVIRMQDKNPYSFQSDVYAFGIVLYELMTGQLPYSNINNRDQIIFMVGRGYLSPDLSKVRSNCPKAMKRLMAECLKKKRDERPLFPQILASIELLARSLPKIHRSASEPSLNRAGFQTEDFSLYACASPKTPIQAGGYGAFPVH

[9] = target: T9, Erk2 (Homo sapiens, UniProt P28482); test: AlphaScreen kinase assay, Erk2; conditions: read-out: IC50, activity toward kinase Erk2
T9 construct: P4227.pET15S ERK2/MEK1DD; His6 with thrombin site (N); made in house
T9 sequence (P28482 with tags, fused parts or gaps): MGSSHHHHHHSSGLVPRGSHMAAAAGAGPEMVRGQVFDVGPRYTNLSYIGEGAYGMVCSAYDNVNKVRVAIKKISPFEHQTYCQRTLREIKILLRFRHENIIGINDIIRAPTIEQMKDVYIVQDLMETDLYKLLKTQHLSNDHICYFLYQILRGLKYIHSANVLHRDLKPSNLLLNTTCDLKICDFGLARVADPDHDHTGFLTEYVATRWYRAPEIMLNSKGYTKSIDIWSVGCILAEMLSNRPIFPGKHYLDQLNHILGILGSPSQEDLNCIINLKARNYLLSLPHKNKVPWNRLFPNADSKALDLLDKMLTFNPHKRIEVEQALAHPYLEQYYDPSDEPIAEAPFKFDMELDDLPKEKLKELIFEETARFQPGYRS
Description: (§2) AlphaScreen assay was used to screen additional kinases. The assay is similarly dependent on the phosphorylation of a peptide substrate. In this assay, an antibody that recognizes phosphorylated substrate is bound to an acceptor bead. The peptide substrate is attached to biotin, which binds to a donor head that contains streptavidin. Thus phosphorylated substrate is bound by antibody and streptavidin, bringing the donor and acceptor heads into close proximity when kinase is not inhibited. The donor produces singlet oxygen which results in emission from the acceptor when they are in close proximity. Conversely, when kinase is inhibited, the donor and acceptor beads are not associated and the emission from the acceptor is reduced.
(§3) AlphaScreen assays were done using compounds dissolved in DMSO to a concentration of 20 mM. The compounds were diluted accordingly to the desired final concentrations in each sample well, using 1:3 serial dilution for a total of 8 concentration points.

[10] = target: T10, Pyk2 (Homo sapiens, UniProt Q14289); test: AlphaScreen kinase assay, Pyk2; conditions: read-out: IC50, activity toward kinase Pyk2
T10 construct: purchased Upstate Biotechnology
T10 sequence (Q14289 whole entry): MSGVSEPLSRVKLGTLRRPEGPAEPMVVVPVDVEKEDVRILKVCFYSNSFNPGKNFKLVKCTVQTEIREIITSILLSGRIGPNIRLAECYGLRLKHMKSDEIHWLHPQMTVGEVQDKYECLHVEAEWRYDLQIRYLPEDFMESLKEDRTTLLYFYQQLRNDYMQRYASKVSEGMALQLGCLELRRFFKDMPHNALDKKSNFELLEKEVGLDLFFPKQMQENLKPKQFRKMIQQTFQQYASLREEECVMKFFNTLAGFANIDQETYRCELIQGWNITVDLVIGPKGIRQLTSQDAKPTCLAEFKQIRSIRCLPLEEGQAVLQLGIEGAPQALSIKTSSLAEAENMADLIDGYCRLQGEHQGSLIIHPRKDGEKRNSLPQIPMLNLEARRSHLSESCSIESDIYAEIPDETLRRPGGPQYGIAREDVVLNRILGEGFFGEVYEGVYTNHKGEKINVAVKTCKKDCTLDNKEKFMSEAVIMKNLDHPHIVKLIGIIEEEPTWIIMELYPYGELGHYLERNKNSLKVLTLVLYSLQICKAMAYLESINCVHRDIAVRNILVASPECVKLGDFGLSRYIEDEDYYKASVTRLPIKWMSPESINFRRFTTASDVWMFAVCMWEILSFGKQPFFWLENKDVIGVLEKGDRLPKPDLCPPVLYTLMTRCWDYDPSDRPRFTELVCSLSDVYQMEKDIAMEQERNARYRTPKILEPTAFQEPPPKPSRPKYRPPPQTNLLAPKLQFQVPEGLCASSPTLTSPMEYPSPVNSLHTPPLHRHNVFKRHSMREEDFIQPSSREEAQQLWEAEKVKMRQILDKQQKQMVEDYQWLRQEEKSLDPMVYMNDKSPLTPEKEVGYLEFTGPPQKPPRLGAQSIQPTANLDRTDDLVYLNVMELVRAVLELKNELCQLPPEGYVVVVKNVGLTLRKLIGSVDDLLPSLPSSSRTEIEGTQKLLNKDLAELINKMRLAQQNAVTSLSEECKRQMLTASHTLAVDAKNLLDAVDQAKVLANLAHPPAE

[11] = target: T11, Src (Homo sapiens, UniProt P12931); test: AlphaScreen kinase assay, Src; conditions: read-out: IC50, activity toward kinase Src
T11 construct: P1144. pET-N6 BI-PTP SRC V86-L536-X; made in house

[12] = target: T12, Flt1 (Homo sapiens, UniProt P17948); test: AlphaScreen kinase assay, Flt1; conditions: read-out: IC50, activity toward kinase Flt1
T12 construct: P1826.pETN6 BI-PTP FLT1 M799-D1165-X WT; His6 (N); made in house; host or cells: E. coli (PTP1B co-expressed)
T12 sequence (P17948 with tags, fused parts or gaps): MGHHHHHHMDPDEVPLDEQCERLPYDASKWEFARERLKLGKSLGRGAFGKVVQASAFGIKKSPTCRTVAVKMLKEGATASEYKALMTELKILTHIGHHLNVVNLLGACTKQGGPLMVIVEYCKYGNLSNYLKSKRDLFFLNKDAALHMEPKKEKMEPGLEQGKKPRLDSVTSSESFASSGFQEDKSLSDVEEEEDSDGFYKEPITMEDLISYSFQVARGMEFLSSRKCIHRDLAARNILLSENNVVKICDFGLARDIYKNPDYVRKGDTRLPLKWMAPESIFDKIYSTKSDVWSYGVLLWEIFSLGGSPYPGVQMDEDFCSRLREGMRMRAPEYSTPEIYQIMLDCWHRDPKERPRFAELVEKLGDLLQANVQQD

[13] = target: T13, Jnk3 (Homo sapiens, UniProt P53779); test: AlphaScreen kinase assay, Jnk3; conditions: read-out: IC50, activity toward kinase Jnk3
T13 construct: purchased Upstate Biotechnology

[14] = target: T14, FGFR1 (Homo sapiens, UniProt P11362, C488A/C584S); test: AlphaScreen kinase assay, FGFR1; conditions: read-out: IC50, activity toward kinase FGFR
T14 construct: P1351.pET N6 BI-PTP FGFR A458-E765-X C488A, C584S; made in house; host or cells: E. coli (PTP1B co-expressed)
T14 sequence (P11362 458-765 C488A/C584S): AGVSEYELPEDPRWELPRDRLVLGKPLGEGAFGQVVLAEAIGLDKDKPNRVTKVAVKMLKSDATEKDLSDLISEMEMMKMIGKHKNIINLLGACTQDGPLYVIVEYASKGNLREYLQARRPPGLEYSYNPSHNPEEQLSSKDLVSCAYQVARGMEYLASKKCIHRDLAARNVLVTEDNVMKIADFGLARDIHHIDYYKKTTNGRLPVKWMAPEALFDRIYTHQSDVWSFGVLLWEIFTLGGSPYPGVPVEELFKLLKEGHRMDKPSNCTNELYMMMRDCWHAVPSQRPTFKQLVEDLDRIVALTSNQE
Description: AlphaScreen assays were done using compounds dissolved in DMSO to a concentration of 20 mM. The compounds were diluted accordingly to the desired final concentrations in each sample well, using 1:3 serial dilution for a total of 8 concentration points. Plates were prepared such that each kinase reaction is 20 μl in 1× kinase buffer, 5% DMSO and 10 μM ATP. After incubation of the kinase reaction for 1 hour at room temperature, 5 μl of donor beads in stop buffer (50 mM EDTA in 1× kinase buffer) was added, the sample was mixed and incubated for 20 minutes at room temperature before adding 5 μl of acceptor beads in stop buffer. The samples were incubated for 60 minutes at room temperature and the signal per well was read on AlphaQuest reader.

[15] = target: T15, Met (Homo sapiens, UniProt P08581); test: AlphaScreen kinase assay, Met; conditions: read-out: IC50, activity toward kinase Met
T15 construct: P1818.pETN6 BI-PTP MET G1056-G1364-X WT; His6 (N); made in house; host or cells: E. coli (PTP1B co-expressed)
In short: as §1

[16] = target: T16, Fak (Homo sapiens, UniProt Q05397); test: AlphaScreen kinase assay, Fak; conditions: read-out: IC50, activity toward kinase Fak
T16 construct: P1358.pFastBacHtb FAK S411-Q686-X; His6 with pFastBacHTb leader (TEV site) (N); made in house; host or cells: Sf9 (baculovirus)
T16 sequence (Q05397 411-686): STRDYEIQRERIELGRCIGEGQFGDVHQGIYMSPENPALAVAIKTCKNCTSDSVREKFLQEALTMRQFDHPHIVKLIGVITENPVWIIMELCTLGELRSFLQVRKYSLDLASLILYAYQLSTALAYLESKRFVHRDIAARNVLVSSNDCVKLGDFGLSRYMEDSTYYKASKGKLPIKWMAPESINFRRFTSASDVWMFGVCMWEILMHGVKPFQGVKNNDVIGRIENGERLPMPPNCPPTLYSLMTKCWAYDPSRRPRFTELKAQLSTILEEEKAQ

[17] = target: Hck (Homo sapiens, UniProt P08631); test: AlphaScreen kinase assay, Hck; conditions: read-out: IC50, activity toward kinase Hck
Description: as §2, §3

[18] = target: T17, Fms (Homo sapiens, UniProt P07333); test: AlphaScreen kinase assay, Fms; conditions: read-out: IC50, activity toward kinase Fms
T17 construct: purchased Upstate Biotechnology

[19] = target: Csk (Homo sapiens, UniProt P41240); test: AlphaScreen kinase assay, Csk; conditions: read-out: IC50, activity toward kinase Csk
In short: as §1

[20] = target: Frk (Homo sapiens, UniProt P42685); test: AlphaScreen kinase assay, Frk; conditions: read-out: IC50, activity toward kinase Frk
In short: as §1

[21] = target: T18, Btk (Homo sapiens, UniProt Q06187); test: Z'-Lyte FRET kinase assay (Invitrogen), Btk; conditions: read-out: IC50, activity toward kinase Btk
T18 construct: purchased Invitrogen (assay run by Invitrogen)

[22] = target: PDGFRA (Homo sapiens, UniProt P16234); test: AlphaScreen kinase assay, PDGFRA; conditions: read-out: IC50, activity toward kinase PDGFRA
Description: as §2, §3

[23] = target: Brk (Homo sapiens, UniProt Q13882); test: AlphaScreen kinase assay, Brk; conditions: read-out: IC50, activity toward kinase Brk
In short: as §1

[24] = target: T19, Stk6 (Homo sapiens, UniProt O14965); test: Z'-Lyte FRET kinase assay (Invitrogen), Stk6; conditions: read-out: IC50, activity toward kinase Stk6
T19 construct: purchased Invitrogen (Carlsbad, Calif.), screening service
T19 sequence (O14965 1-403): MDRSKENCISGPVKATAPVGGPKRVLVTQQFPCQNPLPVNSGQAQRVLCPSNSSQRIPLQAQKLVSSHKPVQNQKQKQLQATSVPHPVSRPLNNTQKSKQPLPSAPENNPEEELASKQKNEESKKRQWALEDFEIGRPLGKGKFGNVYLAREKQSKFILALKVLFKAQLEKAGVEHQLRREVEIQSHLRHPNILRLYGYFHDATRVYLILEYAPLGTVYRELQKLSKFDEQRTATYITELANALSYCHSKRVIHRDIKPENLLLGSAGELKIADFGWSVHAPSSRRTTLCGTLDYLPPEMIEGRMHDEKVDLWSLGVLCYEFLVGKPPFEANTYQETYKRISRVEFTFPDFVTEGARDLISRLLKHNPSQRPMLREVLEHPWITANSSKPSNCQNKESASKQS

[25] = target: MAP4K4 (Homo sapiens, UniProt O95819); test: AlphaScreen kinase assay, MAP4K4; conditions: read-out: IC50, activity toward kinase MAP4K4
[26] = target: T20, c-Raf-1 (Homo sapiens, UniProt P04049); test: AlphaScreen kinase assay, c-Raf-1; conditions: read-out: IC50, activity toward kinase c-Raf-1
T20 construct: purchased Upstate Biotechnology

Measured: IC50

O=S(=O)(NCc1c[nH]c2ncccc12)c1cc(Cl)c(Cl)s1 [Compound P-0550]
not listed: [16] | [17] | [18] | [19] | [20] | [21] | [22] | [23] | [24] | [25] | [26]
≤ 10 µM: all other assays above

O=S(=O)(NCc1c[nH]c2ncccc12)c1ccc(N2CCOCC2)nc1 [Compound P-0611]
≤ 10 µM: [2] | [4] | [5] | [6] | [16] | [7] | [9] | [10] | [14]

O=C(c1c(F)ccc(NS(=O)(=O)c2ccccc2)c1F)c1c[nH]c2ncc(Cl)cc12 [Compound P-0885, N-[3-(5-Chloro-1H-pyrrolo[2,3-b]pyridine-3-carbonyl)-2,4-difluorophenyl]-benzenesulfonamide]
not listed: [2] | [3] | [4] | [5] | [9] | [10] | [12] | [13] | [15]
≤ 10 µM: all other assays above
